Data from the NIST ThermoML archive (doi:10.1021/je300175w).
“And” between values parts separate entries of the source, which are not always exact repeats. Identical values can stand only once.

Assay: mn = molality of the nth substance listed, in mol/kg
Settings: 101 kPa, Liquid; for speed of sound: Sing-around technique in a fixed-path interferometer; for mass density: Vibrating tube method

CCC(CO)(CO)CO [2-ethyl-2-(hydroxymethyl)-1,3-propanediol] + O
speed of sound
Settings	278.15 K	283.15 K	288.15 K	293.15 K	298.15 K	308.15 K	318.15 K
m1 = 0.09974	1436 m/s and 1436.1 m/s	1456.4 m/s and 1456.5 m/s	1474.5 m/s	1490.3 m/s	1504.1 m/s	1526.5 m/s and 1526.2 m/s	1542.2 m/s and 1542 m/s
m1 = 0.1998	1445.7 m/s	1465.3 m/s and 1465.4 m/s	1482.8 m/s	1498 m/s	1511.3 m/s	1532.7 m/s and 1532.4 m/s	1547.6 m/s and 1547.4 m/s
m1 = 0.3	1455.1 m/s	1474.1 m/s	1490.9 m/s	1505.6 m/s	1518.3 m/s	1538.9 m/s and 1538.5 m/s	1552.8 m/s and 1552.7 m/s
m1 = 0.3961	1464 m/s	1482.3 m/s and 1482.4 m/s	1498.5 m/s	1512.7 m/s	1524.9 m/s	1544.6 m/s and 1544.3 m/s	1557.4 m/s and 1557.6 m/s
m1 = 0.5048	1473.8 m/s	1491.4 m/s	1507 m/s	1520.5 m/s	1532.2 m/s	1550.9 m/s and 1550.5 m/s	1562.8 m/s and 1563 m/s

CC(CO)CO [2-methyl-1,3-propanediol] + O
speed of sound
Settings	278.15 K	283.15 K	288.15 K	293.15 K	298.15 K	308.15 K	318.15 K
m1 = 0.1097	1434 m/s	1454.5 m/s and 1454.4 m/s	1472.6 m/s	1488.5 m/s	1502.3 m/s and 1502.4 m/s	1524.7 m/s	1540.4 m/s and 1540.6 m/s
m1 = 0.1997	1440.3 m/s and 1440.4 m/s	1460.3 m/s	1477.9 m/s and 1478 m/s	1493.4 m/s	1506.9 m/s	1528.6 m/s	1543.8 m/s and 1544 m/s
m1 = 0.3091	1448 m/s	1467.3 m/s	1484.4 m/s	1499.4 m/s	1512.4 m/s	1533.6 m/s and 1533.3 m/s	1547.8 m/s and 1548 m/s
m1 = 0.3983	1454.1 m/s	1472.9 m/s and 1473 m/s	1489.6 m/s	1504.1 m/s and 1504.2 m/s	1516.8 m/s	1537.3 m/s and 1537 m/s	1551.1 m/s and 1551.2 m/s

CC(C)(CO)CO [2,2-dimethyl-1,3-propanediol] + O
Settings	mass density	speed of sound
273.15 K, m1 = 0.1001	1000.25 kg/m3	–
273.15 K, m1 = 0.2006	1000.57 kg/m3	–
273.15 K, m1 = 0.2997	1000.91 kg/m3	–
273.15 K, m1 = 0.4021	1001.28 kg/m3	–
273.15 K, m1 = 0.5001	1001.66 kg/m3	–
273.15 K, m1 = 0.6007	1002.07 kg/m3	–
278.15 K, m1 = 0.1001	–	1435.8 m/s
278.15 K, m1 = 0.2006	–	1445.4 m/s
278.15 K, m1 = 0.2997	–	1454.5 m/s
278.15 K, m1 = 0.4021	–	1463.8 m/s
278.15 K, m1 = 0.5001	–	1472.5 m/s
278.15 K, m1 = 0.6007	–	1481.3 m/s
283.15 K, m1 = 0.1001	999.968 kg/m3 and 999.967 kg/m3	1456.2 m/s
283.15 K, m1 = 0.2006	1000.26 kg/m3	1464.9 m/s
283.15 K, m1 = 0.2997	1000.57 kg/m3	1473.3 m/s and 1473.4 m/s
283.15 K, m1 = 0.4021	1000.92 kg/m3	1481.9 m/s
283.15 K, m1 = 0.5001	1001.26 kg/m3	1489.9 m/s
283.15 K, m1 = 0.6007	1001.63 kg/m3 and 1001.64 kg/m3	1497.9 m/s and 1498 m/s
288.15 K, m1 = 0.1001	999.35 kg/m3 and 999.351 kg/m3	1474.1 m/s and 1474.2 m/s
288.15 K, m1 = 0.2006	999.623 kg/m3	1482.2 m/s
288.15 K, m1 = 0.2997	999.911 kg/m3 and 999.913 kg/m3	1490 m/s and 1489.9 m/s
288.15 K, m1 = 0.4021	1000.23 kg/m3	1497.8 m/s
288.15 K, m1 = 0.5001	1000.54 kg/m3 and 1000.55 kg/m3	1505.2 m/s
288.15 K, m1 = 0.6007	1000.88 kg/m3	1512.6 m/s
293.15 K, m1 = 0.1001	998.435 kg/m3 and 998.438 kg/m3 and 998.44 kg/m3	1489.9 m/s
293.15 K, m1 = 0.2006	998.688 kg/m3 and 998.69 kg/m3 and 998.693 kg/m3	1497.4 m/s and 1497.3 m/s
293.15 K, m1 = 0.2997	998.956 kg/m3 and 998.958 kg/m3 and 998.96 kg/m3	1504.5 m/s
293.15 K, m1 = 0.4021	999.245 kg/m3 and 999.25 kg/m3 and 999.252 kg/m3	1511.8 m/s
293.15 K, m1 = 0.5001	999.536 kg/m3 and 999.541 kg/m3 and 999.543 kg/m3	1518.5 m/s
293.15 K, m1 = 0.6007	999.846 kg/m3 and 999.849 kg/m3 and 999.851 kg/m3	1525.3 m/s
298.15 K, m1 = 0.1001	997.263 kg/m3 and 997.264 kg/m3 and 997.261 kg/m3	1503.7 m/s
298.15 K, m1 = 0.2006	997.499 kg/m3	1510.5 m/s and 1510.6 m/s
298.15 K, m1 = 0.2997	997.744 kg/m3 and 997.745 kg/m3 and 997.742 kg/m3	1517.1 m/s and 1517.2 m/s
298.15 K, m1 = 0.4021	998.013 kg/m3 and 998.015 kg/m3	1523.8 m/s and 1523.9 m/s
298.15 K, m1 = 0.5001	998.28 kg/m3 and 998.279 kg/m3 and 998.282 kg/m3	1530 m/s and 1530.1 m/s
298.15 K, m1 = 0.6007	998.56 kg/m3 and 998.559 kg/m3 and 998.562 kg/m3	1536.2 m/s and 1536.3 m/s
303.15 K, m1 = 0.1001	995.849 kg/m3 and 995.85 kg/m3	1515.6 m/s
303.15 K, m1 = 0.2006	996.066 kg/m3 and 996.067 kg/m3	1521.9 m/s
303.15 K, m1 = 0.2997	996.293 kg/m3 and 996.294 kg/m3	1528 m/s
303.15 K, m1 = 0.4021	996.538 kg/m3 and 996.539 kg/m3	1534.1 m/s
303.15 K, m1 = 0.5001	996.781 kg/m3	1539.9 m/s and 1539.8 m/s
303.15 K, m1 = 0.6007	997.037 kg/m3 and 997.036 kg/m3	1545.6 m/s and 1545.5 m/s
308.15 K, m1 = 0.1001	994.216 kg/m3 and 994.215 kg/m3	1525.8 m/s
308.15 K, m1 = 0.2006	994.415 kg/m3 and 994.416 kg/m3	1531.6 m/s and 1531.5 m/s
308.15 K, m1 = 0.2997	994.624 kg/m3 and 994.621 kg/m3	1537.2 m/s and 1537.1 m/s
308.15 K, m1 = 0.4021	994.845 kg/m3 and 994.847 kg/m3	1542.8 m/s
308.15 K, m1 = 0.5001	995.067 kg/m3 and 995.065 kg/m3 and 995.068 kg/m3	1548 m/s and 1548.1 m/s
308.15 K, m1 = 0.6007	995.297 kg/m3 and 995.296 kg/m3 and 995.298 kg/m3	1553.2 m/s and 1553.1 m/s
318.15 K, m1 = 0.1001	990.368 kg/m3 and 990.367 kg/m3	1541.5 m/s and 1541.4 m/s
318.15 K, m1 = 0.2006	990.531 kg/m3 and 990.532 kg/m3 and 990.533 kg/m3	1546.4 m/s and 1546.3 m/s
318.15 K, m1 = 0.2997	990.701 kg/m3 and 990.7 kg/m3	1551 m/s
318.15 K, m1 = 0.4021	990.883 kg/m3 and 990.882 kg/m3	1555.6 m/s and 1555.7 m/s
318.15 K, m1 = 0.5001	991.06 kg/m3 and 991.057 kg/m3 and 991.058 kg/m3	1559.9 m/s and 1560 m/s
318.15 K, m1 = 0.6007	991.242 kg/m3 and 991.241 kg/m3	1564.2 m/s and 1564.3 m/s
